Reference: patent publication US6608027B1, “Macrocyclic peptides active against the hepatitis C virus” (Boehringer Ingelheim (Canada) Ltd, priority 1999, dated 2003)

Target: T1, NS3 protease (Hepatitis C virus genotype 1b, UniProt P26663)
T1 construct: expressed in transfected cells; host or cells: Huh-7 human hepatoma cells, transient co-transfection (CMV promoter)
Test: NS3 protease cell-based assay (SEAP reporter, Huh-7 cells)
Design: species or system HCV
Conditions: SEAP activity, 24-hour incubation, read-out: cell. act. (EC50 code)
Excerpt: This assay is done with Huh-7 cells, a human cell line derived from a hepatoma, co-transfected with 2 DNA constructs: one (called NS3) expressing part of the HCV non-structural polyprotein fused to the tTA protein through an NS5A-NS5B cleavage site in the following order: NS3-NS4A-NS4B-NS5A-(NS5B)tTA where (NS5B) represents the 6 first amino acids of NS5
B. This polyprotein is expressed under the control of the CMV promoter, the other (called SEAP) expressing the reporter protein, secreted alkaline phosphatase (SEAP), under the regulation of a tTA-responsive promoter. The first construct leads to the expression of a polyprotein from which the different mature proteins are released through cleavage by the NS3 protease. It is believed that the mature viral proteins forms a complex at the membrane of the endoplasmic reticulum. tTA is a fusion protein, described by Gossen and Bujard (Proc. Natl. Acad. Sci. USA 89 (1992): 5547-5551), which contains a DNA-binding domain and a transcriptional activator. Release of the tTA protein requires an NS3-dependent cleavage at the NS5A-NS5B cleavage site between NS5A and itself. This last cleavage allows tTA to migrate to the nucleus and transactivate the SEAP gene. Therefore, reduction of NS3 proteolytic activity leads to confinement of tTA to the cytoplasm and concomitant decrease in SEAP activity.
To control for cellular activities other than inhibition of NS3 protease which are due to the compound, a parallel co-transfection is done with a construct expressing tTA alone and the same reporter construct such that SEAP activity is independent of the NS3 protease.
Protocol of the assay: Huh-7 cells, grown in CHO-SFMII (Life Technologies)+10% FCS (fetal calf serum) were co-transfected with the two DNA constructs in the following proportions: 7 μg NS3+500 ng SEAP+[…] FuGENE (Boehringer Mannheim) per 4×10^6 Huh-7 cells. After 5 hours at 37° C., the cells were washed, trypsinized and plated (at 80 000 cells/well) in 96-well plates containing a range of concentrations of the compounds to be tested. After a 24-hour incubation period, the SEAP activity in the medium was measured with the Phospha-Light kit (Tropix).
Analysis of the percent inhibition of SEAP activity with respect to compound concentration was performed with the SAS software to obtain the EC50.

T1 sequence (P26663 1658-1711): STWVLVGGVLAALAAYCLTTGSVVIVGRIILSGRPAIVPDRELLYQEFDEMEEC
T1 sequence (P26663 1027-1657): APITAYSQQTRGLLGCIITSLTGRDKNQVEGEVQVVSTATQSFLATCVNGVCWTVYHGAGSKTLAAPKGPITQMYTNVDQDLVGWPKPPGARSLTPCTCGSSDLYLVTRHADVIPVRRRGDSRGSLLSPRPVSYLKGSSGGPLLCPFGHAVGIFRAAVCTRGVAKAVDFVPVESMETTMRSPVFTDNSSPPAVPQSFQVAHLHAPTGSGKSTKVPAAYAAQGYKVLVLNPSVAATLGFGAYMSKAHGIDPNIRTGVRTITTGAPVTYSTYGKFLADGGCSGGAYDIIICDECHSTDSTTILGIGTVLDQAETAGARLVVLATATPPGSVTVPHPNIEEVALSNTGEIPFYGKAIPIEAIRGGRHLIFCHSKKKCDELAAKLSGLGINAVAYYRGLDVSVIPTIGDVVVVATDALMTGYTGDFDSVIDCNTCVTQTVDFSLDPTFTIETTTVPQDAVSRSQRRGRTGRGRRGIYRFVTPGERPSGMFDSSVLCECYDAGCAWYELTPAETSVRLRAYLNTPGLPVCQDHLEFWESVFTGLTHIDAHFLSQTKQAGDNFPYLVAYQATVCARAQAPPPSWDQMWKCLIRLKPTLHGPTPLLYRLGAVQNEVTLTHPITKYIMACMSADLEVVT

Row | Compound | EC50 [µM]
1 | CNc1nc(-c2cc(O[C@@H]3C[C@H]4C(=O)N[C@]5(C(=O)O)CC5/C=C\CCCCC[C@H](NC(=O)OC5CCCC5)C(=O)N4C3)c3ccc(OC)cc3n2)cs1 (stereo partly shown) [Compound 811] | ≤ 1
2 | COC(=O)Nc1nc(-c2cc(O[C@@H]3C[C@H]4C(=O)N[C@]5(C(=O)O)C[C@H]5/C=C\CCCCC[C@H](NC(=O)OC(C)(C)C)C(=O)N4C3)c3ccc(OC)cc3n2)cs1 [Compound 736] | ≤ 1
3 | COc1ccc(-c2cc(O[C@@H]3C[C@H]4C(=O)N[C@]5(C(=O)O)C[C@H]5/C=C\CCCCC[C@H](NC(=O)OC(C)(C)C)C(=O)N4C3)c3ccc(OC)cc3n2)nc1 [Compound 737] | ≤ 1
4 | COc1ccc2c(O[C@@H]3C[C@H]4C(=O)N[C@]5(C(=O)O)CC5/C=C\CCCCC[C@H](NC(=O)OC(C)(C)C)C(=O)N4C3)cc(-c3nccn3C)nc2c1 (stereo partly shown) [Compound 726] | ≤ 1
5 | COC(=O)Nc1nc(-c2cc(O[C@@H]3C[C@H]4C(=O)N[C@]5(C(=O)O)CC5/C=C\CCCCC[C@H](NC(=O)OC5CCCC5)C(=O)N4C3)c3ccc(OC)cc3n2)cs1 (stereo partly shown) [Compound 818] | ≤ 1
6 | COc1ccc2c(O[C@@H]3C[C@H]4C(=O)N[C@]5(C(=O)O)C[C@H]5/C=C\CCCCC[C@H](NC(=O)OC(C)(C)C)C(=O)N4C3)cc(C3CCC=CO3)nc2c1 (stereo partly shown) [Compound 732] | > 1
7 | COc1ccc2c(O[C@@H]3C[C@H]4C(=O)N[C@]5(C(=O)O)C[C@H]5/C=C\CCCCC[C@H](NC(=O)OC(C)(C)C)C(=O)N4C3)cc(-n3cccc3)nc2c1 [Compound 715] | ≤ 1
8 | COc1ccc2c(O[C@@H]3C[C@H]4C(=O)N[C@]5(C(=O)O)C[C@H]5/C=C\CCCCC[C@H](NC(=O)OC(C)(C)C)C(=O)N4C3)cc(-c3cccc(C)n3)nc2c1 [Compound 719] | ≤ 1
9 | COc1ccc2c(O[C@@H]3C[C@H]4C(=O)N[C@]5(C(=O)O)C[C@H]5/C=C\COCCC[C@H](NC(=O)OC(C)(C)C)C(=O)N4C3)cc(-c3ccccc3)nc2c1 [Compound 701] | > 1
10 | COc1ccc2c(O[C@@H]3C[C@H]4C(=O)N[C@]5(C(=O)O)CC5CCCCCCC[C@H](NC(=O)OC5CCCC5)C(=O)N4C3)cc(-n3cccc3)nc2c1 (stereo partly shown) [Compound 907] | ≤ 1
11 | COc1ccc2c(O[C@@H]3C[C@H]4C(=O)N[C@]5(C(=O)O)CC5/C=C\CCCCC[C@H](NC(=O)OC(C)(C)C)C(=O)N4C3)cc(-n3ccnc3)nc2c1 (stereo partly shown) [Compound 718] | ≤ 1
12 | COc1ccc2c(O[C@@H]3C[C@H]4C(=O)N[C@]5(C(=O)O)CC5CCCCCCC[C@H](NC(=O)OC5CCCC5)C(=O)N4C3)cc(-c3csc(NC(C)C)n3)nc2c1 (stereo partly shown) [Compound 911] | ≤ 1
13 | COc1ccc2c(O[C@@H]3C[C@H]4C(=O)N[C@]5(C(=O)O)CC5/C=C\CCCCC[C@H](NC(=O)OC(C)(C)C)C(=O)N4C3)cc(-c3nc(C(C)C)cs3)nc2c1 (stereo partly shown) [Compound 725] | ≤ 1
14 | COc1ccc2c(O[C@@H]3C[C@H]4C(=O)N[C@]5(C(=O)O)CC5CCCCCCC[C@H](NC(=O)OC5CCCC5)C(=O)N4C3)cc(-c3csc(N)n3)nc2c1 (stereo partly shown) [Compound 908] | ≤ 1
15 | COc1ccc2c(O[C@@H]3C[C@H]4C(=O)N[C@]5(C(=O)O)CC5/C=C\CCCCC[C@H](NC(=O)OC(C)(C)C)C(=O)N4C3)cc(-c3nnc(C)o3)nc2c1 (stereo partly shown) [Compound 716] | > 1
16 | COc1ccc2c(O[C@@H]3C[C@H]4C(=O)N[C@]5(C(=O)O)CC5/C=C\CCCCC[C@H](NC(=O)OC5CCCC5)C(=O)N4C3)cc(-c3csc(NC4CCC4)n3)nc2c1 (stereo partly shown) [Compound 826] | ≤ 1
17 | CCNc1nc(-c2cc(O[C@@H]3C[C@H]4C(=O)N[C@]5(C(=O)O)C[C@H]5/C=C\CCCCC[C@H](NC(=O)OC(C)(C)C)C(=O)N4C3)c3ccc(OC)cc3n2)cs1 [Compound 708] | ≤ 1
18 | CCNc1nc(-c2cc(O[C@@H]3C[C@H]4C(=O)N[C@]5(C(=O)O)CC5/C=C\CCCCC[C@H](NC(=O)OC5CCCC5)C(=O)N4C3)c3ccc(OC)cc3n2)cs1 (stereo partly shown) [Compound 810] | ≤ 1
19 | COc1ccc2c(O[C@@H]3C[C@H]4C(=O)N[C@]5(C(=O)O)C[C@H]5/C=C\CCCCC[C@H](NC(=O)OC(C)(C)C)C(=O)N4C3)cc(-c3nccs3)nc2c1 [Compound 705] | ≤ 1
20 | COCc1cc(O[C@@H]2C[C@H]3C(=O)N[C@]4(C(=O)O)C[C@H]4/C=C\CCCCC[C@H](NC(=O)OC(C)(C)C)C(=O)N3C2)c2ccc(OC)cc2n1 [Compound 727] | > 1

Row | Compound | EC50 [µM]
21 | COc1ccc2c(O[C@@H]3C[C@H]4C(=O)N[C@]5(C(=O)O)C[C@H]5/C=C\CCCCC[C@H](NC(=O)OC(C)(C)C)C(=O)N4C3)cc(-c3csc(NC(C)=O)n3)nc2c1 [Compound 702] | ≤ 1
22 | COc1ccc2c(O[C@@H]3C[C@H]4C(=O)N[C@]5(C(=O)O)C[C@H]5/C=C\CCCCC[C@H](NC(=O)OC(C)(C)C)C(=O)N4C3)cc(-c3ccccn3)nc2c1 [Compound 704] | ≤ 1
23 | COc1ccc2c(O[C@@H]3C[C@H]4C(=O)N[C@]5(C(=O)O)CC5/C=C\CCCCC[C@H](NC(=O)OC(C)(C)C)C(=O)N4C3)cc(-n3cccn3)nc2c1 (stereo partly shown) [Compound 733] | ≤ 1
24 | COc1ccc2c(O[C@@H]3C[C@H]4C(=O)N[C@]5(C(=O)O)CC5/C=C\CCCCC[C@H](NC(=O)OC5CCCC5)C(=O)N4C3)cc(-c3csc(NC4CC4)n3)nc2c1 (stereo partly shown) [Compound 825] | ≤ 1
25 | COc1ccc2c(O[C@@H]3C[C@H]4C(=O)N[C@]5(C(=O)O)CC5CCCCCCC[C@H](NC(=O)OC5CCCC5)C(=O)N4C3)cc(-c3csc(NC(C)=O)n3)nc2c1 (stereo partly shown) [Compound 909] | ≤ 1
26 | COc1ccc2c(O[C@@H]3C[C@H]4C(=O)N[C@]5(C(=O)O)C[C@H]5/C=C\CCCCC[C@H](NC(=O)OC(C)(C)C)C(=O)N4C3)cc(-c3csc(C(C)C)n3)nc2c1 [Compound 707] | ≤ 1
27 | COc1ccc2c(O[C@@H]3C[C@H]4C(=O)N[C@]5(C(=O)O)CC5/C=C\CCCCC[C@H](NC(=O)OC(C)(C)C)C(=O)N4C3)cc(-n3cnc(C)c3)nc2c1 (stereo partly shown) [Compound 722] | ≤ 1
28 | CCNc1nc(-c2cc(O[C@@H]3C[C@H]4C(=O)N[C@]5(C(=O)O)CC5CCCCCCC[C@H](NC(=O)OC(C)(C)C)C(=O)N4C3)c3ccc(OC)cc3n2)cs1 (stereo partly shown) [Compound 703] | ≤ 1
29 | CNc1nc(-c2cc(O[C@@H]3C[C@H]4C(=O)N[C@]5(C(=O)O)C[C@H]5/C=C\CCCCC[C@H](NC(=O)OC(C)(C)C)C(=O)N4C3)c3ccc(OC)cc3n2)cs1 [Compound 729] | ≤ 1
30 | CCNc1nc(-c2cc(O[C@@H]3C[C@H]4C(=O)N[C@]5(C(=O)O)CC5CCCCCCC[C@H](NC(=O)OC5CCCC5)C(=O)N4C3)c3ccc(OC)cc3n2)cs1 (stereo partly shown) [Compound 910] | ≤ 1
31 | COc1ccc2c(O[C@@H]3C[C@H]4C(=O)N[C@]5(C(=O)O)C[C@H]5/C=C\CCCCC[C@H](NC(=O)OC(C)(C)C)C(=O)N4C3)cc(-c3csc(NC=O)n3)nc2c1 [Compound 735] | ≤ 1
32 | COc1ccc2c(O[C@@H]3C[C@H]4C(=O)N[C@]5(C(=O)O)C[C@H]5/C=C\CCCCC[C@H](NC(=O)OC(C)(C)C)C(=O)N4C3)cc(-c3csc(NC(C)C)n3)nc2c1 [Compound 741] | ≤ 1
33 | COc1ccc2c(O[C@@H]3C[C@H]4C(=O)N[C@]5(C(=O)O)C[C@H]5/C=C\CCCCC[C@H](NC(=O)OC(C)(C)C)C(=O)N4C3)cc(C)nc2c1 [Compound 728] | > 1
34 | COc1ccc2c(O[C@@H]3C[C@H]4C(=O)N[C@]5(C(=O)O)CC5/C=C\CCCCC[C@H](NC(=O)OC(C)(C)C)C(=O)N4C3)cc(-c3nc(C)no3)nc2c1 (stereo partly shown) [Compound 717] | ≤ 1
35 | COc1ccc2c(O[C@@H]3C[C@H]4C(=O)N[C@]5(C(=O)O)CC5/C=C\CCCCC[C@H](NC(=O)OC5CCCC5)C(=O)N4C3)cc(-c3csc(NC(=O)OCC(C)C)n3)nc2c1 (stereo partly shown) [Compound 819] | ≤ 1
36 | COc1ccc2c(O[C@@H]3C[C@H]4C(=O)N[C@]5(C(=O)O)CC5/C=C\CCCCC[C@H](NC(=O)OC(C)(C)C)C(=O)N4C3)cc(-n3cc(C)cn3)nc2c1 (stereo partly shown) [Compound 734] | ≤ 1
37 | COc1ccc2c(O[C@@H]3C[C@H]4C(=O)N[C@]5(C(=O)O)CC5/C=C\CCCCC[C@H](NC(=O)OC5CCCC5)C(=O)N4C3)cc(-c3csc(NC4CCCCC4)n3)nc2c1 (stereo partly shown) [Compound 828] | ≤ 1
38 | CCOc1cc(O[C@@H]2C[C@H]3C(=O)N[C@]4(C(=O)O)C[C@H]4/C=C\CCCCC[C@H](NC(=O)OC(C)(C)C)C(=O)N3C2)c2ccc(OC)cc2n1 [Compound 712] | ≤ 1
39 | COc1ccc2c(O[C@@H]3C[C@H]4C(=O)N[C@]5(C(=O)O)CC5/C=C\CCCCC[C@H](NC(=O)OC5CCCC5)C(=O)N4C3)cc(-c3csc(NC4CCCC4)n3)nc2c1 (stereo partly shown) [Compound 827] | ≤ 1
40 | COc1ccc2c(O[C@@H]3C[C@H]4C(=O)N[C@]5(C(=O)O)CC5/C=C\CCCCC[C@H](NC(=O)OC(C)(C)C)C(=O)N4C3)cc(-n3ccc(C)n3)nc2c1 (stereo partly shown) [Compound 738] | ≤ 1
